Measured values from patent publication US20040006139A1, “Choline pyruvate, method for the production thereof, formulations containing choline pyruvate and the use thereof” (priority 2000, published 2004).
Where two headings read alike, the source gives them in different places.

Experiments:
[1] = 12 hours of storage in a refrigerator; clear, yellow liquid
[2] = person, daily supplement of 5 g
[3] = person, run over marathon distance (26.2 miles), daily supplement of 10 g
intestinal bacteria = conditions: by intestinal bacteria; cited from earlier work
[4] = cited from earlier work
[5] = long-distance runners, 20 miles, intake of 2.8 g, placebo-controlled; cited from earlier work

## choline pyruvate [Example 1]
Day 4
  Appearance: clear
  HPLC content Parapyruvate: 2.7%
  HPLC content Pyruvate: 35.3%
  IC content Choline: 50.6%
Day 21
  Appearance: clear
  HPLC content Parapyruvate: 2.6%
  HPLC content Pyruvate: 35.8%
  IC content Choline: 50.6%
Day 42
  Appearance: clear
  HPLC content Parapyruvate: 2.6%
  HPLC content Pyruvate: 35.5%
  IC content Choline: 50.7%
Day 103
  Appearance: clear
  HPLC content Parapyruvate: 2.8%
  HPLC content Pyruvate: 35.9%
  IC content Choline: 50.6%
[1]
  stability during storage: remained stable
[2]
  fat-free body mass: increase
  weight reduction: approximately 3%
[3]
  performance increase: 4%

## C[N+](C)(C)CCO [choline, hydroxyethyltrimethylammonium]
Intestinal bacteria
  oral intake converted into di- or trimethylamine: Approximately 60%
[4]; in vivo
  lowest-observed-adverse-effect level (LOAEL): 7.5 g/day
[4]; taking into consideration an element of uncertainty
  upper tolerable daily dose: 3.5 g

## C[N+](C)(C)CCO.[Cl-] [choline chloride]
[5]
  performance increase: approximately 3%
